In paper PMC9050506 (RSC Advances, 2020):

Tested on: Recombinant influenza A virus hemagglutinin H3 protein (HA)
Details: SPR sensorgrams Fig. 3A-D

Q: How did the “Rmax, binding to HA” value turn out when “CVN2L0-V2: CVN2L0 variant with one C58E–C73R substitution, three disulfide bonds” was run?
A: 723 RU

B1: CVN2L0-V4: CVN2L0 variant with Cys–Cys mutagenesis to Trp–Met and Glu–Arg, two disulfide bonds (protein)
chain: LGKFSQTCYNSAIQGSVLTSTCERTNGGYNTSSIDLNSVIENVDGSLKWQPSNFIETWRNTQLAGSSELAAEMKTRAQQFVSTKINLDDHIANIDGTLKYELGKFSQTCYNSAIQGSVLTSTCERTNGGYNTSSIDLNSVIENVDGSLKWQPSNFIETERNTQLAGSSELAAERKTRAQQFVSTKINLDDHIANIDGTLKYE
modifications: left off: His6, N-terminal, state not stated
Q: B1 was tested. Which “Rmax, binding to HA” value did it give?
A: 34 RU
